Data as given in ChEMBL document CHEMBL3217548, “Biological activity and DNA binding studies of 2-substituted benzimidazo[1,2-a]quinolines bearing different amino side chains” (Medchemcomm, 2013).
Active and inactive are the calls of the source. The rule behind the calls is not given here.

Tests used:
[1] = tested on: HCT-116; test: Cytotoxicity against human HCT116 cells after 72 hrs by MTT assay; format: functional, cell-based; conditions: HCT-116, 72 h
[2] = tested on: MCF7; test: Cytotoxicity against human MCF7 cells after 72 hrs by MTT assay; format: functional, cell-based; conditions: MCF7, 72 h
[3] = Cytotoxicity against human H460 cells after 72 hrs by MTT assay; format: functional, cell-based; conditions: NCI-H460, 72 h
[4] = tested on: Escherichia coli; test: Induction of topoisomerase1-mediated Escherichia coli pUC19 plasmid relaxation at 20 to 50 uM incubated for 45 mins prior to topoisomerase1 addition by agarose gel electrophoresis
[5] = tested on: Escherichia coli; test: Binding affinity to Escherichia coli pUC19 plasmid assessed as nicked DNA at 5 to 50 uM by ethidium bromide staining-based agarose gel electrophoresis
[6] = molecular target: T1, DNA topoisomerase 1 (Homo sapiens) (UniProt P11387); test: Inhibition of human DNA topoisomerase 1 assessed as inhibition of DNA cleavage
T1 sequence (whole entry): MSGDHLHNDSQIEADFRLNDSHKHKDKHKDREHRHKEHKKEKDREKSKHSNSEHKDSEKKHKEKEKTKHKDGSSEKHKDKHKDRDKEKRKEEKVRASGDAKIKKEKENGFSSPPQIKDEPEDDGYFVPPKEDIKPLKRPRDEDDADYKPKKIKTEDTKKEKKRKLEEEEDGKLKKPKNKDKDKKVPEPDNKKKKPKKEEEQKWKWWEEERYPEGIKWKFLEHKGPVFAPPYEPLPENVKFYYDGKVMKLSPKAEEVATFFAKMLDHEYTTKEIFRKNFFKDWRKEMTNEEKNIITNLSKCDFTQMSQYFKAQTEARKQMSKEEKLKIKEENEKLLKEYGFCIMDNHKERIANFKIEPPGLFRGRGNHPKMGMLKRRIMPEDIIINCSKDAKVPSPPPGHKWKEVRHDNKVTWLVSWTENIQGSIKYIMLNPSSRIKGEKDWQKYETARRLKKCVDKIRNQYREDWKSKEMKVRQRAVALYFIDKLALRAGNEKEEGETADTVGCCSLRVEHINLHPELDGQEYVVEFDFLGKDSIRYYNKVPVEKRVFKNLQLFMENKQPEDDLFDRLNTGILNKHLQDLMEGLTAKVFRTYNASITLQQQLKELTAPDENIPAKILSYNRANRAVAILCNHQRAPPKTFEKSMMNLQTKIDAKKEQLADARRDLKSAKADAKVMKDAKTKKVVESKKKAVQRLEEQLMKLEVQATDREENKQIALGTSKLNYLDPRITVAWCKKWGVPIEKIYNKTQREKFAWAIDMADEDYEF

[7] = species: Homo sapiens; test: Inhibition of human DNA topoisomerase 2 assessed as inhibition of DNA cleavage
[8] = tested on: Calf thymus DNA; test: Binding affinity to calf thymus DNA assessed as DNA intercalation at 1 to 50 uM by circular dichroism analysis; format: nucleic-acid assay; conditions: Bos taurus
[9] = tested on: Calf thymus DNA; test: Binding affinity to calf thymus DNA assessed as change in melting temperature at 0.5 drug/DNA ratio by spectrophotometry; format: nucleic-acid assay; conditions: Bos taurus
[10] = tested on: DNA; test: Induction of DNA damage in plasmid DNA in E. coli S30 cell-free system assessed as inhibition of EGFP translation at 50 uM after 1 hr by fluorescence assay
[11] = tested on: Nucleic Acid; test: DNA intercalating activity at Escherichia coli pUC19 plasmid assessed as effect on global structure of DNA helix at 5 to 50 uM incubated for 45 mins prior to topoisomerase1 addition by agarose gel electrophoresis; format: nucleic-acid assay

## CNc1ccc2cc(C#N)c3nc4ccccc4n3c2c1
[1]
  IC50: > 10000 nM
[2]
  IC50: 200 nM
[3]
  IC50: > 10000 nM

## CCCCNc1ccc2cc(C#N)c3nc4ccccc4n3c2c1
[1]
  IC50: 4000 nM
[2]
  IC50: 1000 nM
[3]
  IC50: 2000 nM

## N#Cc1cc2ccc(N3CCOCC3)cc2n2c1nc1ccccc12
[1]
  IC50: 300 nM
[4]
  Activity: inactive
[2]
  IC50: 200 nM
[5]
  Activity: Active
[6]
  Activity: inactive
[7]
  Activity: inactive
[3]
  IC50: 300 nM
[8]
  Activity: Active
[9]
  ΔTm: 0 °C

## COc1cccc2c1C(=O)c1c(O)c3c(c(O)c1C2=O)C[C@@](O)(C(=O)CO)C[C@@H]3O[C@H]1C[C@H](N)[C@H](O)[C@H](C)O1 [DOXORUBICIN]
[10]
  inhibition at 50 µM: 79%

## CC[C@@]1(O)C(=O)OCc2c1cc1n(c2=O)Cc2cc3ccccc3nc2-1
[10]
  inhibition: inactive

## CCCCCN(CCCCC)c1ccc2cc(C#N)c3nc4ccccc4n3c2c1
[1]
  IC50: > 10000 nM
[11]
  Activity: inactive
[2]
  IC50: 39000 nM
[5]
  Activity: Active
[6]
  Activity: inactive
[7]
  Activity: inactive
[3]
  IC50: > 10000 nM
[8]
  Activity: inactive
[9]
  ΔTm: 0 °C

## O=C(O)CCCc1ccc(N(CCCl)CCCl)cc1 [CHLORAMBUCIL]
[10]
  inhibition at 50 µM: 45%
